The record followed here is patent US20110123530A1, “COMPOSITIONS AND METHODS FOR TREATING AND DIAGNOSING ASTHMA” (priority 2008, published 2011).

The assay concerns serum periostin. Put plainly: Serum periostin electrochemiluminescent assay (ECLA). The format is in vivo, human. Conditions: asthmatics on inhaled corticosteroids (N = 51) vs No ICS (N = 49). As to the method: Serum IgE was measured by UCSF clinical laboratories or by ELISA using a human serum IgE ELISA kit according to manufacturer's instructions (Bethyl Laboratories). Serum CEA was measured using a human serum CEA ELISA kit according to manufacturer's instructions (Alpco Diagnostics). We developed an electrochemiluminescent assay (ECLA) to measure serum periostin using anti-periostin antibodies (R&D systems). Briefly, monoclonal anti-periostin was coated onto plates at 1.5 micrograms/ml in sodium carbonate buffer, pH 9.6 overnight at 4° C. Plates were blocked in assay buffer (1×PBS pH 7.4, 0.35 M NaCl, 0.5% BSA, 0.05% Tween 20, 0.25% CHAPS, 5 mM EDTA, 15PPM Proclin)+3% BSA for 2 hours at room temperature, then washed 4× with TBST (Tris-buffered saline+0.1% Tween-20). Serum was diluted 1:5 in assay buffer and incubated with agitation at room temperature for 2 h, then washed 4× with TBST. Recombinant periostin (R&D Systems) was used to establish a standard range. […] Reading buffer (Meso Scale Devices) was added and electrochemiluminescence was read (Meso Scale Devices). […] In addition, we measured IgE and YKL-40, a serum marker previously described to be elevated in some asthmatics, in these same sera. […]

As for `CCC(=O)O[C@]1(C(=O)SCF)[C@H](C)C[C@H]2[C@@H]3C[C@H](F)C4=CC(=O)C=C[C@]4(C)[C@@]3(F)[C@@H](O)C[C@@]21C` [fluticasone, fluticasone propionate], the “Periostin, level of serum biomarker, median (range)” value is listed as 48 (0-117) ng/ml.
